Literature values, collected in patent US5360794A, “Disubstituted and deoxy disubstituted derivatives of α-D-mannofuranosides and β-L-gulofuranosides having anti-inflammatory and anti-proliferative activity” (Medicarb Inc., priority 1992, dated 1994).
Counter-ions that a name gives are not always drawn.

System: rheumatoid arthritis
Details: late Phase III clinical trials; cited from earlier work

## CN(C)CCCO[C@@H]1[C@H]2OC(C)(C)O[C@H]2O[C@@H]1[C@H](O)CO [Amiprilose HCl, 1,2-O-isopropylidene-3-O-3'-(N', N'-dimethylaminopropyl)-α-D-glucofuranose]
  clinical utility in rheumatoid arthritis: demonstrated utility in managing the signs and symptoms of rheumatoid arthritis
